Patent US20090176817A1, “Method of Treatment of Diarrhea-Predominant Irritable Bowel Syndrome in a Subject” (priority 2005, published 2009)

Tested on: diarrhea-predominant IBS subjects
Assay: Study S241.3.011: weekly diary questions on adequate relief
Format: in vivo, human
Procedure: Study S241.3.011 was a Phase III, double-blind, placebo-controlled, randomized, multinational study to investigate the safety and efficacy of 2 mg TID of cilansetron for a period of 12 weeks followed by a rerandomized, placebo-controlled four-week treatment period, in diarrhea-predominant IBS subjects. The study was conducted in six countries including the US. A total of 2115 subjects consented to participate, and 770 subjects were randomized. A total of 746 subjects were analyzed for efficacy and 755 subjects were analyzed for safety. Diagnosis and main criteria for inclusion were IBS subjects satisfying the Rome I criteria (1992); the diarrhea predominant sub-population of the Rome II criteria; and a minimum abdominal pain/discomfort, stool frequency and consistency determined during the run-in period. Subjects were treated with cilansetron 2 mg tablets given orally TID or matching placebo tablets given orally TID for 12 weeks followed by a rerandomized, placebo-controlled four-week treatment period.
The primary efficacy parameter was the number of months that a subject was a responder for IBS symptoms (abdominal pain, abdominal discomfort, abnormal bowel habits) over the 12-week treatment period. A responder for a month (monthly responder) was defined as a subject who answered the weekly question with “yes” at least twice for that month. The two main secondary efficacy parameters were the monthly responder rates based on the “adequate relief” questions regarding abdominal pain/discomfort and abnormal bowel habits during the 12-week treatment period. The overall response rate and responder rate for the weekly diary questions on adequate relief at each month and all months, the adequate relief rate, the number of subjects with adequate relief by week, daily diary questions, IBS-QOL scores, and the interruption of activities were also assessed. Safety was evaluated by physical examination, ECG, vital signs, laboratory evaluations, concomitant medications, and AEs.
Subjects who were initially randomized to the cilansetron 2 mg TID group and rerandomized to placebo, will be referred to as the C/P treatment group; subjects initially randomized to the placebo group and rerandomized to placebo will be referred to as the P/P treatment group; the P/C and C/C treatment group nomenclature follow the same principle. Of the 591 subjects who completed the three-month treatment period, 576 subjects were rerandomized and thus divided into the following treatment groups: 150 subjects in the C/C treatment group, 140 subjects in the C/P treatment group, 136 subjects in the P/C treatment group, and 150 subjects in the P/P treatment group. Of the 576 subjects rerandomized, a higher percentage of subjects in the C/C treatment group (99%) completed the study compared with the C/P (95%), P/C (93%), and the P/P (95%) treatment groups.
Studies S24 1.3.OO6, S24 1.3.0 1 1, and S24 1.3.009 used the following efficacy measurements: • The subjects answered the following three questions with “yes” or “no” using a phone diary at the end of each week: • a) During the last week, did you experience adequate relief of your IBS symptoms, such as abdominal pain, abdominal discomfort, abnormal bowel habits? • b) During the last week, did you experience adequate relief of your abdominal pain and/or discomfort? • c) During the last week, did you experience adequate relief of your abnormal bowel habits? • The subjects rated the following symptoms using the phone diary at the end of each day: • abdominal pain/discomfort (five-point scale); • stool consistency (seven-point Bristol Stool Scale); • stool frequency (number of bowel movements each day); • urgency (five-point scale); • straining (yes or no); • feeling of incomplete defecation (yes or no); • bloating or feeling of abdominal distension (five-point scale). • In Studies S241 A006 and S241.3.009, subjects completed the IBS-QOL Survey at Baseline (Day 1) and at the end of treatment. […]

[1] = 2 mg TID, monthly LOCF, ITT N = 377
[2] = 2 mg TID, three-month treatment period, monthly LOCF, ITT N = 377
[3] = 2 mg TID, three-month treatment period, observed case, ITT N = 377
[4] = Baseline BMI: <30 kg/m^2, three-month treatment period, monthly LOCF, ITT, 2 mg TID

## Cc1nccn1C[C@H]1CCc2c(c3cccc4c3n2CCC4)C1=O [Cilansetron, (R)-(−)-4,5,6,8,9,10-hexahydro-10-[(2-methyl-1H-imidazol-1-yl)methyl]-11H-pyrido-[3,2,1-jk]-carbazol-11-one]
2 mg TID, 3 months
  Responders for one month, IBS symptoms: 14%
  Responders for one month, abdominal pain/discomfort: 12%
  Responders for one month, abnormal bowel habits: 13%
  Responders for three months, IBS symptoms: 39%
  Responders for three months, abdominal pain/discomfort: 42%
  Responders for three months, abnormal bowel habits: 40%
  Responders for two months, IBS symptoms: 19%
  Responders for two months, abdominal pain/discomfort: 19%
  Responders for two months, abnormal bowel habits: 18%
  Responders for zero months, IBS symptoms: 28%
  Responders for zero months, abdominal pain/discomfort: 27%
  Responders for zero months, abnormal bowel habits: 30%
[1]
  Responder rate, adequate relief of IBS symptoms, Each month of Months 1 to 3: 148 (39) n (%)
  Responder rate, adequate relief of IBS symptoms, Month 1: 216 (57) n (%)
  Responder rate, adequate relief of IBS symptoms, Month 2: 214 (57) n (%)
  Responder rate, adequate relief of IBS symptoms, Month 3: 208 (55) n (%)
  Responder rate, adequate relief of abdominal pain/discomfort, Each month of Months 1 to 3: 159 (42) n (%)
  Responder rate, adequate relief of abdominal pain/discomfort, Month 1: 217 (58) n (%)
  Responder rate, adequate relief of abdominal pain/discomfort, Month 2: 229 (61) n (%)
  Responder rate, adequate relief of abdominal pain/discomfort, Month 3: 220 (58) n (%)
  Responder rate, adequate relief of abnormal bowel habits, Each month of Months 1 to 3: 149 (40) n (%)
  Responder rate, adequate relief of abnormal bowel habits, Month 1: 214 (57) n (%)
  Responder rate, adequate relief of abnormal bowel habits, Month 2: 209 (55) n (%)
  Responder rate, adequate relief of abnormal bowel habits, Month 3: 206 (55) n (%)
[2]
  Subjects who were responders for One month, adequate relief of IBS symptoms: 54 (14) n (%)
  Subjects who were responders for One month, adequate relief of abdominal pain/discomfort: 45 (12) n (%)
  Subjects who were responders for One month, adequate relief of abnormal bowel habits: 50 (13) n (%)
  Subjects who were responders for Three months, adequate relief of IBS symptoms: 148 (39) n (%)
  Subjects who were responders for Three months, adequate relief of abdominal pain/discomfort: 159 (42) n (%)
  Subjects who were responders for Three months, adequate relief of abnormal bowel habits: 149 (40) n (%)
  Subjects who were responders for Two months, adequate relief of IBS symptoms: 70 (19) n (%)
  Subjects who were responders for Two months, adequate relief of abdominal pain/discomfort: 72 (19) n (%)
  Subjects who were responders for Two months, adequate relief of abnormal bowel habits: 66 (18) n (%)
  Subjects who were responders for Zero months, adequate relief of IBS symptoms: 105 (28) n (%)
  Subjects who were responders for Zero months, adequate relief of abdominal pain/discomfort: 101 (27) n (%)
  Subjects who were responders for Zero months, adequate relief of abnormal bowel habits: 112 (30) n (%)
[3]
  Overall responder rate, adequate relief of IBS symptoms: 206 (55) n (%)
  Overall responder rate, adequate relief of abdominal pain/discomfort: 221 (59) n (%)
  Overall responder rate, adequate relief of abnormal bowel habits: 203 (54) n (%)
3 months
  Median adequate relief rate, IBS symptoms: 0.58
  Median adequate relief rate, abdominal pain/discomfort: 0.58
  Median adequate relief rate, abnormal bowel habits: 0.58
3 months, observed case, ITT
  Overall responder rate, IBS symptoms: 55%
  Overall responder rate, abdominal pain/discomfort: 59%
  Overall responder rate, abnormal bowel habits: 54%
Argentina and Chile
  Responder rate, abdominal pain/discomfort: 65%
[4]
  Number of months a subject was a responder: One month (Abdominal pain/discomfort): 30 (11) n (%)
  Number of months a subject was a responder: One month (Abnormal bowel habits): 33 (12) n (%)
  Number of months a subject was a responder: One month (IBS symptoms): 38 (14) n (%)
  Number of months a subject was a responder: Three months (Abdominal pain/discomfort): 113 (42) n (%)
  Number of months a subject was a responder: Three months (Abnormal bowel habits): 104 (39) n (%)
  Number of months a subject was a responder: Three months (IBS symptoms): 107 (40) n (%)
  Number of months a subject was a responder: Two months (Abdominal pain/discomfort): 50 (19) n (%)
  Number of months a subject was a responder: Two months (Abnormal bowel habits): 51 (19) n (%)
  Number of months a subject was a responder: Two months (IBS symptoms): 48 (18) n (%)
  Number of months a subject was a responder: Zero months (Abdominal pain/discomfort): 73 (27) n (%)
  Number of months a subject was a responder: Zero months (Abnormal bowel habits): 78 (29) n (%)
